In patent US20090298708A1, “2'-DEOXY-2'-FLUORO-BETA-D-ARABINONUCLEOSIDE 5'-TRIPHOSPHATES AND THEIR USE IN ENZYMATIC NUCLEIC ACID SYNTHESIS” (priority 2006, published 2009):
Like-named read-outs stand apart in the source and are kept apart here. Marks after values point to notes of the source that are not given here.

What was measured:
Design in all cases: key: ++++: excellent (no pausing observed); +++: very good (with slight pausing); ++: Good, full-length products with significant pausing; +: significant pausing, no full-length product but at least one 2′F-araN incorporation detected
[1] = molecular target: T1, Bst DNA polymerase large fragment (Bst) (Geobacillus stearothermophilus, UniProt P52026); assay: Primer extension assay with Bst DNA polymerase large fragment; type: biochemical; settings: for Incorporation of three 2′F-araTTP / 2′F-araCTP (incorporation efficiency): DNA template PF22 (2′F-araTTP) or PF24 (2′F-araCTP); for Enzymatic activity during primer extension reactions: plus dATP, dGTP
T1 construct: consists of the portion of the Bacillus stearothemmophilus DNA polymerase protein responsible for 5′->3′ polymerase activity but lacks the 5′->3′ exonuclease domain; purchased New England Biolabs
T1 sequence (P52026 289-876 limits assumed): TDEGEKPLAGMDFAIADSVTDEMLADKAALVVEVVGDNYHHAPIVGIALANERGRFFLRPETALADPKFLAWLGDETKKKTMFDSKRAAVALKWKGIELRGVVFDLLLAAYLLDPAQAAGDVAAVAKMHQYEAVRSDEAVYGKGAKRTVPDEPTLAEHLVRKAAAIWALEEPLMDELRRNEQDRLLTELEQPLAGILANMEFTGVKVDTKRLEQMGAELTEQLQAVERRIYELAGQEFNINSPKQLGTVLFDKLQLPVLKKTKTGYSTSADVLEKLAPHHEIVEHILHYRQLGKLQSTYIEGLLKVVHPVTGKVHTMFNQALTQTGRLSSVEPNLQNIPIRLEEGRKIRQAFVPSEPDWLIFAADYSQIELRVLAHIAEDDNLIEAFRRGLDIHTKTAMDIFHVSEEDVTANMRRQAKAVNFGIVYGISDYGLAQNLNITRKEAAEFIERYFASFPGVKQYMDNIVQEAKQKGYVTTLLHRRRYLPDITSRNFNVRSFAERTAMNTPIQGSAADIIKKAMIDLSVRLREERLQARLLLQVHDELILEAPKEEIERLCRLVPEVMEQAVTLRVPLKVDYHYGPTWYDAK
Description: (§1) Various different types of DNA polymerases were assessed, including the mesophilic enzyme Klenow fragment of DNA pol I (3′→5′ exo-) (“Kf”); the thermophilic DNA polymerases DV, 9N, Taq, Bst pol I, Th and Ph; and the viral reverse transcriptases HIV RT and MMLV. Kf is a genetically engineered proteolytic product of E. coli pol A gene that encodes DNA polymerase I which retains polymerase activity but has a mutation which abolishes the 3′->5′ and 5′->3′ exonuclease activities. DV is a genetically engineered DNA polymerase purified from a strain of E. coli that carries the DV DNA polymerase gene from Pyrococcus species GB-D. The gene has been engineered to eliminate 3′->5′ proofreading exonuclease activity. 9N is a genetically engineered DNA polymerase that has decreased 3′->5′ proofreading exonuclease activity. 9N is purified from a strain of E. coli that carries a modified 9° N DNA polymerase gene from Thermococcus species (strain 9° N-7). […] Taq polymerase is isolated from E. coli engineered to express Taq polymerase from Thermus aquaticus YT-1. Bst DNA polymerase (Large fragment) is a genetically engineered polymerase that consists of the portion of the Bacillus stearothemmophilus DNA polymerase protein responsible for 5′->3′ polymerase activity but lacks the 5′->3′ exonuclease domain. Th DNA polymerase is a genetically engineered, archaeon-derived DNA polymerase that is a variant of the 9N polymerase described above. The recombinant protein is isolated from E. coli engineered to express 9° NA485L (exo-) DNA polymerase gene, a genetic variant of the native DNA polymerase from Thermococcus species 9° N-7. Ph is a recombinant DNA polymerase that consists of a novel Pyrococcus-like enzyme fused with a double-strand DNA-binding and processivity-enhancing domain.
(§2) Primer extension assays were used to assess the incorporation of 2′F-araNTP on the various DNA templates (Table 1). The DNA primer (PF20) was first radioactively labeled at the 5′-hydroxyl terminus with a radioactive phosphorus probe and the enzyme T4 polynucleotide kinase (T4 PNK) (see Example 1 for General Methods). To assess the incorporation of 2′F-araNTPs, the primer and template were annealed, and the nucleoside 5′-triphosphates added in the presence of enzyme under the conditions specified in Table 2. Time points were obtained by analyzing small aliquots from the reaction mixture through polyacryamide gel electrophoresis (PAGE) and autoradiography.
(§3) Unless otherwise noticed in the Examples described below, the conditions used in the primer extension assays, such as dNTP concentration, reaction temperatures, concentration of Mg^2+, and reaction buffers (provided by the manufacturers, except for the HIV buffer which was prepared in-house) are shown in Table 2.
Primer extension assays were used to assess the incorporation of 2′F-araTTP on the DNA template (PF22). The DNA primer (PF20) was first radioactively labeled at the 5′-hydroxyl terminus with a radioactive phosphorus probe and the enzyme T4 polynucleotide kinase (T4 PNK) according to the manufacturer's specifications (MBI Fermentas Life Sciences, Burlington, ON). Incorporation of the ^32P label was accomplished in reaction mixtures consisting of DNA substrate (200 pmol), 2 μl loxreaction buffer (Buffer A for forward reaction: 500 mM Tris-HCl, pH 7.6 at 25° C., 100 mM MgCl2, 50 mM DTT, 1 mM spermidine and 1 mM EDTA), 1 μl T4 PNK enzyme solution (10 U/1 μl in a solution of 20 mM Tris-HCl, pH 7.5, 25 mM KCl, 0.1 mM EDTA, 2 mM DTT and 50% glycerol), 6 μl [γ-^32P]-ATP solution (6000 Ci/mmol, 10 mCi/ml; Amersham Biosciences, Inc.) and autoclaved sterile water to a final volume of 20 μl. The reaction mixture was incubated for about 45-60 min at 37° C., followed by a second incubation for 10 min at 95° C. to heat denature and deactivate the kinase enzyme.

Taq DNA polymerase (Taq) = molecular target: T2, Taq DNA polymerase (Taq) (Thermus aquaticus, UniProt P19821); assay: Primer extension assay with Taq DNA polymerase; type: biochemical, Thermus aquaticus YT-1; settings: for Incorporation of three 2′F-araTTP / 2′F-araCTP (incorporation efficiency): DNA template PF22 (2′F-araTTP) or PF24 (2′F-araCTP); for Enzymatic activity during primer extension reactions: plus dATP, dGTP
T2 construct: purchased New England Biolabs; host or cells: E. coli
T2 sequence (P19821 whole entry): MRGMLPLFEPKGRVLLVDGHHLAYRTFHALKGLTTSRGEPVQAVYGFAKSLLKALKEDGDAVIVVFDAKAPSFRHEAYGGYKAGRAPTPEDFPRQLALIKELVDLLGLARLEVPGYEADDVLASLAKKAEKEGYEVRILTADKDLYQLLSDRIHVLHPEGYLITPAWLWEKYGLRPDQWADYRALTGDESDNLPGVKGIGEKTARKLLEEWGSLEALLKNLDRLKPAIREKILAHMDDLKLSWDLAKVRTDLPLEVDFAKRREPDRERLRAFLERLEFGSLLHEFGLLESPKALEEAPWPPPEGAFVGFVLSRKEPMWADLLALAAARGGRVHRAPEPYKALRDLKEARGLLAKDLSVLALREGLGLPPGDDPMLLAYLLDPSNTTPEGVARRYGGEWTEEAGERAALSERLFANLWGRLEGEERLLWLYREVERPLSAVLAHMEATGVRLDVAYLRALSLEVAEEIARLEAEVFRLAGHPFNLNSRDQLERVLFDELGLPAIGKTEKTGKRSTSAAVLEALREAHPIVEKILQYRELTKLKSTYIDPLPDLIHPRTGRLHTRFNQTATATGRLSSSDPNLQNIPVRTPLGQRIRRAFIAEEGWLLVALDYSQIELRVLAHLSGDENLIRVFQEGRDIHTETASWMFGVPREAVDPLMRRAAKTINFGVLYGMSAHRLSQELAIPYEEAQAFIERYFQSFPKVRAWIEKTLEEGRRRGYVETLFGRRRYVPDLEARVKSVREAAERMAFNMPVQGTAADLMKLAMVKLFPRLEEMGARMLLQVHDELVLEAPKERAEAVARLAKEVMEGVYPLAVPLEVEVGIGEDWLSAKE
Description: as §1, §2, §3
Primer extension assays were used to assess the incorporation of 2′F-araTTP on the DNA template (PF22). The DNA primer (PF20) was first radioactively labeled at the 5′-hydroxyl terminus with a radioactive phosphorus probe and the enzyme T4 polynucleotide kinase (T4 PNK) according to the manufacturer's specifications (MBI Fermentas Life Sciences, Burlington, ON). […]

[2] = test system: Phusion™ High-Fidelity DNA polymerase (Ph); assay: Primer extension assay with Phusion High-Fidelity DNA polymerase; type: biochemical; settings: 55° C.; for Incorporation of three 2′F-araTTP / 2′F-araCTP (incorporation efficiency): DNA template PF22 (2′F-araTTP) or PF24 (2′F-araCTP); for Enzymatic activity during primer extension reactions: plus dATP, dGTP
Description: as §1, §2
as §3, with “2. […]” for “2.”

[3] = molecular target: T3, Klenow fragment DNA polymerase (3′→ 5′ exo-) (Kf) (Escherichia coli, UniProt P00582, D355A/E357A); type: biochemical, E. coli; settings: 37° C.; for Incorporation of three 2′F-araTTP / 2′F-araCTP (incorporation efficiency): DNA template PF22 (2′F-araTTP) or PF24 (2′F-araCTP); for Enzymatic activity during primer extension reactions: plus dATP, dGTP
T3 construct: the mesophilic enzyme Klenow fragment of DNA pol I (3′→5′ exo-) (“Kf”); purchased New England Biolabs
T3 sequence (P00582 324-928 D355A/E357A): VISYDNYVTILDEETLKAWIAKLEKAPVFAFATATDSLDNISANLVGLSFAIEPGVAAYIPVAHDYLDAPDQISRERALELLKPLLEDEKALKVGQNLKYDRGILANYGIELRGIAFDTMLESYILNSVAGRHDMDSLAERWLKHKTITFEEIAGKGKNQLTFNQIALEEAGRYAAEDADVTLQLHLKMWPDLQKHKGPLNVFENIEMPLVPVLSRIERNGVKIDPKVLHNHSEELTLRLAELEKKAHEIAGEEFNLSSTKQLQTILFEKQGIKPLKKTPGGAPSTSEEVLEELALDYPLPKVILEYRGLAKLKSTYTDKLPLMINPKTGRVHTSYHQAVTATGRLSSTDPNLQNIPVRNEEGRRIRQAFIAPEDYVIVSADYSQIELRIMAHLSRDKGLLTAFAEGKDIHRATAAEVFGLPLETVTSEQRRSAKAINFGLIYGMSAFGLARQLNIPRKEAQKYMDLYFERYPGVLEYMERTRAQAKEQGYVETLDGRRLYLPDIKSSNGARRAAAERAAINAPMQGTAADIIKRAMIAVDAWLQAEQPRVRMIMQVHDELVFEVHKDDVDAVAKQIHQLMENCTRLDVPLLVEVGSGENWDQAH
Description: as §1, §2
as §3, with “2. […]” for “2.”

[4] = Example 3, DNA template PF24, 3x 2′F-araCTP, dTTP, 55° C.
[5] = Example 3, DNA template PF24, 3x 2′F-araCTP, dTTP
[6] = Example 2, DNA template PF22, 3x 2′F-araTTP, dCTP

SMILES	Incorporation of three 2′F-araTTP / 2′F-araCTP (incorporation efficiency) ([1]; 37° C.)	Incorporation of three 2′F-araTTP / 2′F-araCTP (incorporation efficiency) ([1]; 55° C.)	Enzymatic activity during primer extension reactions [1, 4]	Incorporation of three 2′F-araTTP / 2′F-araCTP (incorporation efficiency) (Taq DNA polymerase (Taq); 37° C.)	Incorporation of three 2′F-araTTP / 2′F-araCTP (incorporation efficiency) (Taq DNA polymerase (Taq); 55° C.)	Enzymatic activity during primer extension reactions (Taq DNA polymerase (Taq); [4])	Incorporation of three 2′F-araTTP / 2′F-araCTP (incorporation efficiency) [2]	Enzymatic activity during primer extension reactions [2, 5]	Incorporation of three 2′F-araTTP / 2′F-araCTP (incorporation efficiency) [3]	Enzymatic activity during primer extension reactions [3, 5]	Enzymatic activity during primer extension reactions ([1]; Example 2, DNA template PF22, 3x 2′F-araTTP, dCTP, 55° C.)	Enzymatic activity during primer extension reactions (Taq DNA polymerase (Taq); Example 2, DNA template PF22, 3x 2′F-araTTP, dCTP, at 37° C.)	Enzymatic activity during primer extension reactions [2, 6]	Enzymatic activity during primer extension reactions [3, 6]
Nc1ccn([C@@H]2O[C@H](COP(=O)(O)OP(=O)(O)OP(=O)(O)O)[C@@H](O)[C@@H]2F)c(=O)n1 [2′F-araCTP, 1-(2-deoxy-2-fluoro-β-D-arabinofuranosyl)cytosine 5′-triphosphate]	None	++++	++++	++	++++	++++	++++	++++	++	++	–	–	–	–
Cc1cn([C@@H]2O[C@H](COP(=O)(O)OP(=O)(O)OP(=O)(O)O)[C@@H](O)[C@@H]2F)c(=O)[nH]c1=O [2′F-araTTP, 1-(2-deoxy-2-fluoro-β-D-arabino-furanosyl)thymine 5′-triphosphate]	++	+++	–	++	–	–	++++	–	++	–	+++	++^b	++++	++
